Experiments:
Experiment in all cases: cells
CP66-MEL = assay type: functional, cell-based, Homo sapiens; conditions: Homo sapiens, CP66-MEL;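 note: growth inhibition of CP66-MEL cells determined in a cell viability assay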
Description: SANGER: Inhibition of human CP66-MEL cell growth in a cell viability assay.

Ca9-22 = assay type: functional, cell-based, Homo sapiens; conditions: Homo sapiens, Ca9-22;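 note: growth inhibition of Ca9-22 cells, read out with a cell viability assay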
Description: SANGER: Inhibition of human Ca9-22 cell growth in a cell viability assay.

Calu-6 = assay type: functional, cell-based, Homo sapiens; conditions: Homo sapiens, Calu-6;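 note: growth of human Calu-6 cells, read out by a cell viability assay, IC50 marking inhibition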
Description: SANGER: Inhibition of human Calu-6 cell growth in a cell viability assay.

D-263MG = assay type: functional, cell-based, Homo sapiens; conditions: Homo sapiens, D-263MG
Description: SANGER: Inhibition of human D-263MG cell growth in a cell viability assay.

EFM-19 = assay type: functional, cell-based, Homo sapiens; conditions: Homo sapiens, EFM-19;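 note: growth inhibition of human EFM-19 cells, measured in a cell viability assay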
Description: SANGER: Inhibition of human EFM-19 cell growth in a cell viability assay.

EFO-21 = assay type: functional, cell-based, Homo sapiens; conditions: Homo sapiens, EFO-21;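 note: growth inhibition of EFO-21 cells measured with a viability assay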
Description: SANGER: Inhibition of human EFO-21 cell growth in a cell viability assay.

ES7 = assay type: functional, cell-based, Homo sapiens; conditions: Homo sapiens, ES7;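 note: growth inhibition of cultured human ES7 cells, read out as cell viability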
Description: SANGER: Inhibition of human ES7 cell growth in a cell viability assay.

GAMG = assay type: functional, cell-based, Homo sapiens; conditions: Homo sapiens, GAMG;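 note: cell growth inhibition measured by a viability assay in the GAMG human cell line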
Description: SANGER: Inhibition of human GAMG cell growth in a cell viability assay.

GP5d = assay type: functional, cell-based, Homo sapiens; conditions: Homo sapiens, GP5d;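 note: growth inhibition of human GP5d cells, read out with a cell viability assay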
Description: SANGER: Inhibition of human GP5d cell growth in a cell viability assay.

GT3TKB = assay type: functional, cell-based, Homo sapiens; conditions: Homo sapiens, GT3TKB;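 note: growth inhibition of the cell line, read out with a cell viability assay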
Description: SANGER: Inhibition of human GT3TKB cell growth in a cell viability assay.

HCE-4 = assay type: functional, cell-based, Homo sapiens; conditions: Homo sapiens, HCE-4;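 note: cell viability assay measuring inhibition of growth in the human HCE-4 cell line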
Description: SANGER: Inhibition of human HCE-4 cell growth in a cell viability assay.

HSC-2 = assay type: functional, cell-based, Homo sapiens; conditions: Homo sapiens, HSC-2;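 note: growth inhibition of human HSC-2 cells, read out by a cell viability assay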
Description: SANGER: Inhibition of human HSC-2 cell growth in a cell viability assay.

HT-29 = assay type: functional, cell-based, Homo sapiens; conditions: Homo sapiens, HT-29;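 note: growth inhibition of human HT-29 cells, read out by a cell viability assay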
Description: SANGER: Inhibition of human HT-29 cell growth in a cell viability assay.

HT-3 = assay type: functional, cell-based, Homo sapiens; conditions: Homo sapiens, HT-3;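 note: growth inhibition measured with a cell viability readout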
Description: SANGER: Inhibition of human HT-3 cell growth in a cell viability assay.

HuP-T4 = assay type: functional, cell-based, Homo sapiens; conditions: Homo sapiens, HuP-T4;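 note: cell viability assay measuring how much HuP-T4 cell growth is inhibited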
Description: SANGER: Inhibition of human HuP-T4 cell growth in a cell viability assay.

JVM-2 = assay type: functional, cell-based; conditions: Homo sapiens;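 note: growth inhibition of JVM-2 cells determined by a cell viability assay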
Description: SANGER: Inhibition of human JVM-2 cell growth in a cell viability assay.

KM-H2 = assay type: functional, cell-based; conditions: Homo sapiens;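 note: growth inhibition of KM-H2 cells, read out by a cell viability assay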
Description: SANGER: Inhibition of human KM-H2 cell growth in a cell viability assay.

KOSC-2 = assay type: functional, cell-based, Homo sapiens; conditions: Homo sapiens, KOSC-2;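 note: growth inhibition of KOSC-2 cells, read out by a cell viability assay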
Description: SANGER: Inhibition of human KOSC-2 cell growth in a cell viability assay.

KYSE-520 cell line = assay type: functional, cell-based, Homo sapiens; conditions: Homo sapiens, KYSE-520;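 note: growth inhibition of human KYSE-520 cells, read out with a viability assay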
Description: SANGER: Inhibition of human KYSE-520 cell growth in a cell viability assay.

LC-2-ad = assay type: functional, cell-based, Homo sapiens; conditions: Homo sapiens, LC-2-ad;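 note: growth inhibition of human LC-2-ad cells, read out with a cell viability assay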
Description: SANGER: Inhibition of human LC-2-ad cell growth in a cell viability assay.

LCLC-97TM1 = assay type: functional, cell-based, Homo sapiens; conditions: Homo sapiens, LCLC-97TM1;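 note: cell viability assay measuring growth inhibition of human LCLC-97TM1 cells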
Description: SANGER: Inhibition of human LCLC-97TM1 cell growth in a cell viability assay.

MC-IXC = assay type: functional, cell-based, Homo sapiens; conditions: Homo sapiens, MC-IXC;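 note: growth inhibition of MC-IXC cells, read out with a cell viability assay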
Description: SANGER: Inhibition of human MC-IXC cell growth in a cell viability assay.

MDA-MB-361 = assay type: functional, cell-based, Homo sapiens; conditions: Homo sapiens, MDA-MB-361
MDA-MB-453 = assay type: functional, cell-based, Homo sapiens; conditions: Homo sapiens, MDA-MB-453
Description: SANGER: Inhibition of human MDA-MB-453 cell growth in a cell viability assay.

ME-180 = assay type: functional, cell-based; conditions: Homo sapiens;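 note: cell viability assay measuring growth inhibition of ME-180 cells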
Description: SANGER: Inhibition of human ME-180 cell growth in a cell viability assay.

MFM-223 = assay type: functional, cell-based, Homo sapiens; conditions: Homo sapiens, MFM-223
Description: SANGER: Inhibition of human MFM-223 cell growth in a cell viability assay.

MIA PaCa-2 = assay type: functional, cell-based, Homo sapiens; conditions: Homo sapiens, MIA PaCa-2;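 note: growth inhibition of MIA PaCa-2 cells, read out with a cell viability assay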
Description: SANGER: Inhibition of human MIA-PaCa-2 cell growth in a cell viability assay.

NCI-H1650 = assay type: functional, cell-based, Homo sapiens; conditions: Homo sapiens, NCI-H1650;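 note: growth inhibition of human NCI-H1650 cells measured by a cell viability assay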
Description: SANGER: Inhibition of human NCI-H1650 cell growth in a cell viability assay.

NCI-H446 = assay type: functional, cell-based; conditions: Homo sapiens;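 note: growth inhibition of NCI-H446 cells determined by a cell viability assay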
Description: SANGER: Inhibition of human NCI-H446 cell growth in a cell viability assay.

NCI-H720 = assay type: functional, cell-based; conditions: Homo sapiens;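 note: growth inhibition of human NCI-H720 cells determined by a cell viability assay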
Description: SANGER: Inhibition of human NCI-H720 cell growth in a cell viability assay.

NH-12 = assay type: functional, cell-based, Homo sapiens; conditions: Homo sapiens, NH-12;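 note: growth inhibition of NH-12 cells, read out with a cell viability assay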
Description: SANGER: Inhibition of human NH-12 cell growth in a cell viability assay.

NMC-G1 = assay type: functional, cell-based, Homo sapiens; conditions: Homo sapiens, NMC-G1;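 note: growth inhibition of the NMC-G1 cell line, measured with a cell viability read-out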
Description: SANGER: Inhibition of human NMC-G1 cell growth in a cell viability assay.

ONS-76 = assay type: functional, cell-based, Homo sapiens; conditions: Homo sapiens, ONS-76;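 note: growth inhibition of human ONS-76 cells, read out with a cell viability assay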
Description: SANGER: Inhibition of human ONS-76 cell growth in a cell viability assay.

OS-RC-2 = assay type: functional, cell-based, Homo sapiens; conditions: Homo sapiens, OS-RC-2;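 note: growth inhibition of human OS-RC-2 cells, measured by a cell viability assay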
Description: SANGER: Inhibition of human OS-RC-2 cell growth in a cell viability assay.

RPMI-2650 = assay type: functional, cell-based, Homo sapiens; conditions: Homo sapiens, RPMI-2650
Description: SANGER: Inhibition of human RPMI-2650 cell growth in a cell viability assay.

SK-N-AS = assay type: functional, cell-based, Homo sapiens; conditions: Homo sapiens, SK-N-AS;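 note: growth inhibition of human SK-N-AS cells, measured with a cell viability assay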
Description: SANGER: Inhibition of human SK-N-AS cell growth in a cell viability assay.

SK-N-DZ = assay type: functional, cell-based, Homo sapiens; conditions: Homo sapiens, SK-N-DZ;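 note: growth inhibition of the cancer cell line, read out through a viability assay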
Description: SANGER: Inhibition of human SK-N-DZ cell growth in a cell viability assay.

SK-UT-1 = assay type: functional, cell-based, Homo sapiens; conditions: Homo sapiens, SK-UT-1;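 note: growth inhibition of SK-UT-1 cells, measured by a cell viability assay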
Description: SANGER: Inhibition of human SK-UT-1 cell growth in a cell viability assay.

SW1573 = assay type: functional, cell-based, Homo sapiens; conditions: Homo sapiens, SW1573;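 note: growth inhibition of SW1573 cells, read out with a cell viability assay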
Description: SANGER: Inhibition of human SW1573 cell growth in a cell viability assay.

SW1783 = assay type: functional, cell-based; conditions: Homo sapiens;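 note: cell growth inhibition measured with a viability assay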
Description: SANGER: Inhibition of human SW1783 cell growth in a cell viability assay.

SW948 = assay type: functional, cell-based, Homo sapiens; conditions: Homo sapiens, SW948;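 note: growth inhibition of SW948 cells, read out with a cell viability assay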
Description: SANGER: Inhibition of human SW948 cell growth in a cell viability assay.

TE-1 = assay type: functional, cell-based, Homo sapiens; conditions: Homo sapiens, TE-1;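 note: growth inhibition of the human TE-1 cell line, read out with a cell viability assay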
Description: SANGER: Inhibition of human TE-1 cell growth in a cell viability assay.

A-375 = assay type: functional, cell-based, Homo sapiens; conditions: Homo sapiens, A-375;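 note: growth inhibition of A375 cells, read out with a cell viability assay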
Description: SANGER: Inhibition of human A375 cell growth in a cell viability assay.

A388 = assay type: functional, cell-based, Homo sapiens; conditions: Homo sapiens, A388;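 note: growth inhibition of human A388 cells, read out with a cell viability assay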
Description: SANGER: Inhibition of human A388 cell growth in a cell viability assay.

A-431 = assay type: functional, cell-based, Homo sapiens; conditions: Homo sapiens, A-431;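 note: growth inhibition of A-431 cells, determined with a cell viability read-out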
Description: SANGER: Inhibition of human A431 cell growth in a cell viability assay.

U-118-MG = assay type: functional, cell-based, Homo sapiens; conditions: Homo sapiens, U-118-MG
Description: SANGER: Inhibition of human U-118-MG cell growth in a cell viability assay.

U2OS = assay type: functional, cell-based, Homo sapiens, U-2-OS; conditions: Homo sapiens, U2OS;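 note: growth inhibition of human U-2-OS cells, determined with a cell viability assay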
Description: SANGER: Inhibition of human U-2-OS cell growth in a cell viability assay.

CAMA-1 = assay type: functional, cell-based, Homo sapiens; conditions: Homo sapiens, CAMA-1;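 note: growth inhibition of CAMA-1 cells, read out with a cell viability assay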
Description: SANGER: Inhibition of human CAMA-1 cell growth in a cell viability assay.

COLO-320-HSR = assay type: functional, cell-based; conditions: Homo sapiens;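 note: growth inhibition of COLO-320-HSR cells, determined with a cell viability assay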
Description: SANGER: Inhibition of human COLO-320-HSR cell growth in a cell viability assay.

Nc1ccn([C@@H]2O[C@H](CO)[C@@H](O)[C@@H]2O)c(=O)n1 [CYTARABINE]
IC50 (CP66-MEL): > 2000 nM | IC50 (Ca9-22): 321 nM | IC50 (Calu-6): > 2000 nM | IC50 (D-263MG): 1170 nM | IC50 (EFM-19): > 2000 nM | IC50 (EFO-21): 1550 nM | IC50 (ES7): 257 nM | IC50 (GAMG): 394 nM | IC50 (GP5d): 102 nM | IC50 (GT3TKB): 341 nM | IC50 (HCE-4): 277 nM | IC50 (HSC-2): 1460 nM | IC50 (HT-29): > 2000 nM | IC50 (HT-3): 1380 nM | IC50 (HuP-T4): 237 nM | IC50 (JVM-2): > 2000 nM | IC50 (KM-H2): > 2000 nM | IC50 (KOSC-2): 643 nM | IC50 (KYSE-520 cell line): > 2000 nM | IC50 (LC-2-ad): 230 nM | IC50 (LCLC-97TM1): 477 nM | IC50 (MC-IXC): 41.4 nM | IC50 (MDA-MB-361): > 2000 nM | IC50 (MDA-MB-453): > 2000 nM | IC50 (ME-180): > 2000 nM | IC50 (MFM-223): > 2000 nM | IC50 (MIA PaCa-2): 1490 nM | IC50 (NCI-H1650): > 2000 nM | IC50 (NCI-H446): > 2000 nM | IC50 (NCI-H720): > 2000 nM | IC50 (NH-12): 1160 nM | IC50 (NMC-G1): 1960 nM | IC50 (ONS-76): 390 nM | IC50 (OS-RC-2): 1580 nM | IC50 (RPMI-2650): 401 nM | IC50 (SK-N-AS): 450 nM | IC50 (SK-N-DZ): 1070 nM | IC50 (SK-UT-1): 181 nM | IC50 (SW1573): > 2000 nM | IC50 (SW1783): > 2000 nM | IC50 (SW948): > 2000 nM | IC50 (TE-1): > 2000 nM | IC50 (A-375): 396 nM | IC50 (A388): 740 nM | IC50 (A-431): > 2000 nM | IC50 (U-118-MG): > 2000 nM | IC50 (U2OS): 344 nM | IC50 (CAMA-1): > 2000 nM | IC50 (COLO-320-HSR): > 2000 nM

CC(=O)O[C@@]12CO[C@@H]1C[C@H](O)[C@@]1(C)C(=O)[C@H](O)C3=C(C)[C@@H](OC(=O)[C@H](O)[C@@H](NC(=O)OC(C)(C)C)c4ccccc4)C[C@@](O)([C@@H](OC(=O)c4ccccc4)[C@H]21)C3(C)C [DOCETAXEL]
IC50 (CP66-MEL): 3 nM | IC50 (Ca9-22): 0.423 nM | IC50 (Calu-6): 4.47 nM | IC50 (D-263MG): 0.947 nM | IC50 (EFM-19): 2.15 nM | IC50 (EFO-21): > 10 nM | IC50 (ES7): 0.389 nM | IC50 (GAMG): 0.416 nM | IC50 (GP5d): 2.96 nM | IC50 (GT3TKB): 0.232 nM | IC50 (HCE-4): 2.47 nM | IC50 (HSC-2): 0.755 nM | IC50 (HT-29): 2.8 nM | IC50 (HT-3): 2.82 nM | IC50 (HuP-T4): 6.79 nM | IC50 (JVM-2): > 10 nM | IC50 (KM-H2): > 10 nM | IC50 (KOSC-2): 0.255 nM | IC50 (KYSE-520 cell line): 7 nM | IC50 (LC-2-ad): 3.4 nM | IC50 (LCLC-97TM1): 1.44 nM | IC50 (MC-IXC): 0.479 nM | IC50 (MDA-MB-361): 2.81 nM | IC50 (MDA-MB-453): 4.51 nM | IC50 (ME-180): 1.69 nM | IC50 (MFM-223): 6.16 nM | IC50 (MIA PaCa-2): 3.24 nM | IC50 (NCI-H1650): > 10 nM | IC50 (NCI-H446): 2.43 nM | IC50 (NCI-H720): 0.58 nM | IC50 (NH-12): > 10 nM | IC50 (NMC-G1): 0.517 nM | IC50 (ONS-76): 3.22 nM | IC50 (OS-RC-2): > 10 nM | IC50 (RPMI-2650): 2.46 nM | IC50 (SK-N-AS): 5.35 nM | IC50 (SK-N-DZ): 9.83 nM | IC50 (SK-UT-1): 2.26 nM | IC50 (SW1573): 5.54 nM | IC50 (SW1783): 5.7 nM | IC50 (SW948): > 10 nM | IC50 (TE-1): 2.16 nM | IC50 (A-375): 1.21 nM | IC50 (A388): 2.65 nM | IC50 (A-431): > 10 nM | IC50 (U-118-MG): > 10 nM | IC50 (U2OS): 1.75 nM | IC50 (CAMA-1): 1.31 nM | IC50 (COLO-320-HSR): > 10 nM

Cn1cc(C2=C(c3ccc(Cl)cc3Cl)C(=O)NC2=O)c2ccccc21 [SB-216763]
IC50 (CP66-MEL): > 10000 nM | IC50 (Ca9-22): > 10000 nM | IC50 (Calu-6): > 10000 nM | IC50 (D-263MG): > 10000 nM | IC50 (EFM-19): > 10000 nM | IC50 (EFO-21): > 10000 nM | IC50 (ES7): > 10000 nM | IC50 (GAMG): 6650 nM | IC50 (GP5d): > 10000 nM | IC50 (GT3TKB): > 10000 nM | IC50 (HCE-4): > 10000 nM | IC50 (HSC-2): > 10000 nM | IC50 (HT-29): > 10000 nM | IC50 (HT-3): > 10000 nM | IC50 (HuP-T4): > 10000 nM | IC50 (JVM-2): > 10000 nM | IC50 (KM-H2): > 10000 nM | IC50 (KOSC-2): > 10000 nM | IC50 (KYSE-520 cell line): > 10000 nM | IC50 (LC-2-ad): > 10000 nM | IC50 (LCLC-97TM1): > 10000 nM | IC50 (MC-IXC): > 10000 nM | IC50 (MDA-MB-361): > 10000 nM | IC50 (MDA-MB-453): > 10000 nM | IC50 (ME-180): > 10000 nM | IC50 (MFM-223): > 10000 nM | IC50 (MIA PaCa-2): > 10000 nM | IC50 (NCI-H1650): > 10000 nM | IC50 (NCI-H446): > 10000 nM | IC50 (NH-12): > 10000 nM | IC50 (NMC-G1): > 10000 nM | IC50 (ONS-76): > 10000 nM | IC50 (OS-RC-2): > 10000 nM | IC50 (RPMI-2650): > 10000 nM | IC50 (SK-N-AS): > 10000 nM | IC50 (SK-N-DZ): > 10000 nM | IC50 (SK-UT-1): > 10000 nM | IC50 (SW1573): > 10000 nM | IC50 (SW1783): > 10000 nM | IC50 (SW948): > 10000 nM | IC50 (TE-1): > 10000 nM | IC50 (A-375): > 10000 nM | IC50 (A388): > 10000 nM | IC50 (A-431): > 10000 nM | IC50 (U-118-MG): > 10000 nM | IC50 (U2OS): > 10000 nM | IC50 (CAMA-1): > 10000 nM | IC50 (COLO-320-HSR): > 10000 nM
